In brackets after ≈: the same amount, converted by molar mass. Where two headings read alike, the source gives them in different places.
Test system: Enterobacterales
Assay: MIC, broth microdilution, CDC/FDA Antibiotic Resistance Isolate Bank (Example 7, Tables 8, 11, 12)
Type: cell-based
Settings: for MIC50: carbapenemase-producing Enterobacterales, read-out: MIC50

CC(C)(O/N=C(\C(=O)N[C@@H]1C(=O)N2C(C(=O)[O-])=C(C[N+]3(CCNC(=O)c4ccc(O)c(O)c4Cl)CCCC3)CS[C@H]12)c1csc(N)n1)C(=O)O [Cefiderocol, cefiderocol]
MIC (Escherichia coli, KUB No. 5659, AR Bank # 162, read-out: MIC): 8 µg/mL (≈ 10.6 µM)
MIC (Escherichia coli, KUB No. 5764, AR Bank # 368, read-out: MIC): ≤ 0.06 µg/mL
MIC (Escherichia coli, KUB No. 5765, AR Bank # 369, read-out: MIC): 0.25 µg/mL (≈ 0.332 µM)
MIC (Escherichia coli, KUB No. 5766, AR Bank # 370, read-out: MIC): 0.5 µg/mL (≈ 0.665 µM)
MIC (Escherichia coli, KUB No. 5767, AR Bank # 371, read-out: MIC): 0.5 µg/mL (≈ 0.665 µM)
MIC (Escherichia coli, KUB No. 5768, AR Bank # 372, read-out: MIC): 1 µg/mL (≈ 1.33 µM)
MIC (Escherichia coli, KUB No. 5769, AR Bank # 373, read-out: MIC): ≤ 0.06 µg/mL
MIC (Escherichia coli, KUB No. 5770, AR Bank # 374, read-out: MIC): < 0.06 µg/mL
MIC (Escherichia coli, KUB No. 5774, AR Bank # 378, read-out: MIC): 0.12 µg/mL (≈ 0.16 µM)
MIC (Escherichia coli, KUB No. 5779, AR Bank # 433, read-out: MIC): 0.5 µg/mL (≈ 0.665 µM)
MIC (Escherichia coli, KUB No. 5780, AR Bank # 434, read-out: MIC): 0.5 µg/mL (≈ 0.665 µM)
MIC (Escherichia coli, KUB No. 5781, AR Bank # 435, read-out: MIC): 4 µg/mL (≈ 5.32 µM)
MIC (Escherichia, KUB No. 57, AR Bank # 436 (row cut off)): ≤0.0 µg/mL
MIC (Klebsiella aerogenes, Enterobacter aerogenes, KUB No. 5559, AR Bank # 62, read-out: MIC): ≤ 0.06 µg/mL
MIC (Klebsiella aerogenes, Enterobacter aerogenes, KUB No. 5571, AR Bank # 74, read-out: MIC): ≤ 0.06 µg/mL
MIC (Klebsiella aerogenes, Enterobacter aerogenes, KUB No. 5658, AR Bank # 161, read-out: MIC): 1 µg/mL (≈ 1.33 µM)
MIC (Klebsiella aerogenes, Enterobacter aerogenes, KUB No. 5777, AR Bank # 431, read-out: MIC): 1 µg/mL (≈ 1.33 µM)
MIC (Klebsiella oxytoca, KUB No. 5568, AR Bank # 71, read-out: MIC): ≤ 0.06 µg/mL
MIC (Klebsiella oxytoca, KUB No. 5644, AR Bank # 147, read-out: MIC): 0.12 µg/mL (≈ 0.16 µM)
MIC (Klebsiella oxytoca, KUB No. 5771, AR Bank # 375, read-out: MIC): 0.5 µg/mL (≈ 0.665 µM)
MIC (Klebsiella oxytoca, KUB No. 5776, AR Bank # 380, read-out: MIC): ≤ 0.06 µg/mL
MIC (Klebsiella ozaenae, KUB No. 5593, AR Bank # 96, read-out: MIC): ≤ 0.06 µg/mL
MIC (Klebsiella pnemnonine, KUB No. 5758, AR Bank # 362, read-out: MIC): 0.5 µg/mL (≈ 0.665 µM)
MIC (Klebsiella pneumoniae, KUB No. 5531, AR Bank# 34, read-out: MIC): 0.25 µg/mL (≈ 0.332 µM)
MIC (Klebsiella pneumoniae, KUB No. 5536, AR Bank# 39, read-out: MIC): 0.12 µg/mL (≈ 0.16 µM)
MIC (Klebsiella pneumoniae, KUB No. 5537, AR Bank# 40, read-out: MIC): 0.5 µg/mL (≈ 0.665 µM)
MIC (Klebsiella pneumoniae, KUB No. 5538, AR Bank# 41, read-out: MIC): 2 µg/mL (≈ 2.66 µM)
MIC (Klebsiella pneumoniae, KUB No. 5540, AR Bank# 43, read-out: MIC): 0.25 µg/mL (≈ 0.332 µM)
MIC (Klebsiella pneumoniae, KUB No. 5541, AR Bank# 44, read-out: MIC): 0.5 µg/mL (≈ 0.665 µM)
MIC (Klebsiella pneumoniae, KUB No. 5543, AR Bank# 46, read-out: MIC): 0.25 µg/mL (≈ 0.332 µM)
MIC (Klebsiella pneumoniae, KUB No. 5546, AR Bank# 49, read-out: MIC): 1 µg/mL (≈ 1.33 µM)
MIC (Klebsiella pneumoniae, KUB No. 5563, AR Bank # 66, read-out: MIC): 0.5 µg/mL (≈ 0.665 µM)
MIC (Klebsiella pneumoniae, KUB No. 5565, AR Bank # 68, read-out: MIC): 2 µg/mL (≈ 2.66 µM)
MIC (Klebsiella pneumoniae, KUB No. 5572, AR Bank # 75, read-out: MIC): 0.25 µg/mL (≈ 0.332 µM)
MIC (Klebsiella pneumoniae, KUB No. 5573, AR Bank # 76, read-out: MIC): ≤ 0.06 µg/mL
MIC (Klebsiella pneumoniae, KUB No. 5576, AR Bank # 79, read-out: MIC): 0.12 µg/mL (≈ 0.16 µM)
MIC (Klebsiella pneumoniae, KUB No. 5577, AR Bank # 80, read-out: MIC): 2 µg/mL (≈ 2.66 µM)
MIC (Klebsiella pneumoniae, KUB No. 5584, AR Bank # 87, read-out: MIC): 1 µg/mL (≈ 1.33 µM)
MIC (Klebsiella pneumoniae, KUB No. 5594, AR Bank # 97, read-out: MIC): 1 µg/mL (≈ 1.33 µM)
MIC (Klebsiella pneumoniae, KUB No. 5595, AR Bank # 98, read-out: MIC): 0.12 µg/mL (≈ 0.16 µM)
MIC (Klebsiella pneumoniae, KUB No. 5603, AR Bank # 106, read-out: MIC): 1 µg/mL (≈ 1.33 µM)
MIC (Klebsiella pneumoniae, KUB No. 5604, AR Bank # 107, read-out: MIC): ≤ 0.06 µg/mL
MIC (Klebsiella pneumoniae, KUB No. 5606, AR Bank # 109, read-out: MIC): 0.5 µg/mL (≈ 0.665 µM)
MIC (Klebsiella pneumoniae, KUB No. 5609, AR Bank # 112, read-out: MIC): 2 µg/mL (≈ 2.66 µM)
MIC (Klebsiella pneumoniae, KUB No. 5610, AR Bank # 113, read-out: MIC): 0.5 µg/mL (≈ 0.665 µM)
MIC (Klebsiella pneumoniae, KUB No. 5612, AR Bank # 115, read-out: MIC): 0.5 µg/mL (≈ 0.665 µM)
MIC (Klebsiella pneumoniae, KUB No. 5614, AR Bank # 117, read-out: MIC): 2 µg/mL (≈ 2.66 µM)
MIC (Klebsiella pneumoniae, KUB No. 5617, AR Bank # 120, read-out: MIC): 0.25 µg/mL (≈ 0.332 µM)
MIC (Klebsiella pneumoniae, KUB No. 5622, AR Bank # 125, read-out: MIC): 1 µg/mL (≈ 1.33 µM)
MIC (Klebsiella pneumoniae, KUB No. 5623, AR Bank # 126, read-out: MIC): ≤ 0.06 µg/mL
MIC (Klebsiella pneumoniae, KUB No. 5626, AR Bank # 129, read-out: MIC): 1 µg/mL (≈ 1.33 µM)
MIC (Klebsiella pneumoniae, KUB No. 5632, AR Bank # 135, read-out: MIC): 1 µg/mL (≈ 1.33 µM)
MIC (Klebsiella pneumoniae, KUB No. 5635, AR Bank # 138, read-out: MIC): 1 µg/mL (≈ 1.33 µM)
MIC (Klebsiella pneumoniae, KUB No. 5636, AR Bank # 139, read-out: MIC): 0.12 µg/mL (≈ 0.16 µM)
MIC (Klebsiella pneumoniae, KUB No. 5637, AR Bank # 140, read-out: MIC): 0.12 µg/mL (≈ 0.16 µM)
MIC (Klebsiella pneumoniae, KUB No. 5638, AR Bank # 141, read-out: MIC): ≤ 0.06 µg/mL
MIC (Klebsiella pneumoniae, KUB No. 5639, AR Bank # 142, read-out: MIC): < 0.06 µg/mL
MIC (Klebsiella pneumoniae, KUB No. 5640, AR Bank # 143, read-out: MIC): 1 µg/mL (≈ 1.33 µM)
MIC (Klebsiella pneumoniae, KUB No. 5642, AR Bank # 145, read-out: MIC): 0.25 µg/mL (≈ 0.332 µM)
MIC (Klebsiella pneumoniae, KUB No. 5643, AR Bank # 146, read-out: MIC): 0.25 µg/mL (≈ 0.332 µM)
MIC (Klebsiella pneumoniae, KUB No. 5645, AR Bank # 148, read-out: MIC): 0.5 µg/mL (≈ 0.665 µM)
MIC (Klebsiella pneumoniae, KUB No. 5649, AR Bank # 152, read-out: MIC): 0.25 µg/mL (≈ 0.332 µM)
MIC (Klebsiella pneumoniae, KUB No. 5650, AR Bank # 153, read-out: MIC): 1 µg/mL (≈ 1.33 µM)
MIC (Klebsiella pneumoniae, KUB No. 5655, AR Bank # 158, read-out: MIC): 0.5 µg/mL (≈ 0.665 µM)
MIC (Klebsiella pneumoniae, KUB No. 5657, AR Bank # 160, read-out: MIC): 0.25 µg/mL (≈ 0.332 µM)
MIC (Klebsiella pneumoniae, KUB No. 5757, AR Bank # 361, read-out: MIC): 1 µg/mL (≈ 1.33 µM)
MIC (Klebsiella pneumoniae, KUB No. 5759, AR Bank # 363, read-out: MIC): 0.25 µg/mL (≈ 0.332 µM)
MIC (Klebsiella pneumoniae, KUB No. 5760, AR Bank # 364, read-out: MIC): 2 µg/mL (≈ 2.66 µM)
MIC (Klebsiella pneumoniae, KUB No. 5772, AR Bank # 376, read-out: MIC): 1 µg/mL (≈ 1.33 µM)
MIC (Klebsiella pneumoniae, Klebsiella pneumoniae KUB No. 5784, AR Bank #438, read-out: MIC): 0.5 µg/mL (≈ 0.665 µM)
MIC (Klebsiella pneumoniae, Klebsiella pneumoniae KUB No. 5797, AR Bank #453, read-out: MIC): 0.25 µg/mL (≈ 0.332 µM)
MIC (Klebsiella pneumoniae, Klebsiella pneumoniae KUB No. 5809, AR Bank #504, read-out: MIC): 0.25 µg/mL (≈ 0.332 µM)
MIC (Klebsiella pneumoniae, Klebsiella pneumoniae KUB No. 5810, AR Bank #505, read-out: MIC): 0.5 µg/mL (≈ 0.665 µM)
MIC (Klebsiella pneumoniae, Klebsiella pneumoniae KUB No. 5811, AR Bank #506, read-out: MIC): 2 µg/mL (≈ 2.66 µM)
MIC (Klebsiella pneumoniae, Klebsiella pneumoniae KUB No. 5812, AR Bank #507, read-out: MIC): 2 µg/mL (≈ 2.66 µM)
MIC (Klebsiella pneumoniae, Klebsiella pneumoniae KUB No. 5827, AR Bank #522, read-out: MIC): 2 µg/mL (≈ 2.66 µM)
MIC (Klebsiella pneumoniae, Klebsiella pneumoniae KUB No. 5828, AR Bank #523, read-out: MIC): 1 µg/mL (≈ 1.33 µM)
MIC (Klebsiella pneumoniae, Klebsiella pneumoniae KUB No. 5829, AR Bank #524, read-out: MIC): 0.5 µg/mL (≈ 0.665 µM)
MIC (Klebsiella pneumoniae, Klebsiella pneumoniae KUB No. 5830, AR Bank #525, read-out: MIC): 2 µg/mL (≈ 2.66 µM)
MIC (Kluyvera ascorbata, KUB No. 5641, AR Bank # 144, read-out: MIC): ≤ 0.06 µg/mL
MIC (Morganella morganii, KUB No. 5630, AR Bank # 133, read-out: MIC): ≤ 0.06 µg/mL
MIC (Proteus mirabilis, KUB No. 5556, AR Bank# 59, read-out: MIC): 0.25 µg/mL (≈ 0.332 µM)
MIC (Proteus mirabilis, KUB No. 5652, AR Bank # 155, read-out: MIC): ≤ 0.06 µg/mL
MIC (Proteus mirabilis, KUB No. 5653, AR Bank # 156, read-out: MIC): < 0.06 µg/mL
MIC (Proteus mirabilis, KUB No. 5656, AR Bank # 159, read-out: MIC): 0.5 µg/mL (≈ 0.665 µM)
MIC (Proteus mirabilis, KUB No. 5773, AR Bank # 377, read-out: MIC): ≤ 0.06 µg/mL
MIC (Proteus mirabilis, KUB No. 5775, AR Bank # 379, read-out: MIC): 2 µg/mL (≈ 2.66 µM)
MIC (Providencia rettgeri, KUB No. 5579, AR Bank # 82, read-out: MIC): ≤ 0.06 µg/mL
MIC (Salmonella enterica, Salmonella Senftenberg, KUB No. 5624, AR Bank # 127, read-out: MIC): 1 µg/mL (≈ 1.33 µM)
MIC (Serratia marcescens, KUB No. 5588, AR Bank # 91, read-out: MIC): ≤ 0.06 µg/mL
MIC (Serratia marcescens, KUB No. 5596, AR Bank # 99, read-out: MIC): 0.25 µg/mL (≈ 0.332 µM)
MIC (Serratia marcescens, KUB No. 5618, AR Bank # 121, read-out: MIC): 0.12 µg/mL (≈ 0.16 µM)
MIC (Serratia marcescens, KUB No. 5619, AR Bank # 122, read-out: MIC): 0.12 µg/mL (≈ 0.16 µM)
MIC (Serratia marcescens, KUB No. 5620, AR Bank # 123, read-out: MIC): < 0.06 µg/mL
MIC (Serratia marcescens, KUB No. 5621, AR Bank # 124): ≤0.0 µg/mL
MIC (Serratia marcescens, KUB No. 5627, AR Bank # 130, read-out: MIC): 0.12 µg/mL (≈ 0.16 µM)
MIC (Serratia marcescens, KUB No. 5628, AR Bank # 131, read-out: MIC): 50.1 µg/mL (≈ 66.5 µM)
MIC (Serratia marcescens, Serratia marcescens KUB No. 5822, AR Bank #517, read-out: MIC): 2 µg/mL (≈ 2.66 µM)
MIC (Serratia marcescens, Serratia marcescens KUB No. 5826, AR Bank #521, read-out: MIC): 0.5 µg/mL (≈ 0.665 µM)
MIC50 (Metallo-β-lactamase (N = 47)): 1 µg/mL (≈ 1.33 µM)
MIC50 (Serine carbapenemase (N=61)): 0.25 µg/mL (≈ 0.332 µM)

From patent EP4635500A1, “THERAPEUTIC AGENT FOR BACTERIAL INFECTION” (Sumitomo Pharma Co., Ltd., priority 2022, dated 2024)
